Results from PMC7337064, “Parsing the functional specificity of Siderocalin/Lipocalin 2/NGAL for siderophores and related small-molecule ligands” (Journal of Structural Biology: X, 2019).
“Also recorded” adds a separate entry of the source. Read-outs that look alike come from different tables or passages of the source.

Experiments:
[1] = biological target: T1, Scn (Homo sapiens, UniProt P80188); settings: cited from earlier work; for binding to Scn, qualitative binding assays: ref Holmes et al., 2005
T1 construct: made in house

[2] = biological target: T2, human Scn (C87S) (Homo sapiens, UniProt P80188, C107S); test: crystallographic test of candidate ligand binding in the Scn calyx
T2 construct: made in house
T2 sequence (P80188 21-198 C107S): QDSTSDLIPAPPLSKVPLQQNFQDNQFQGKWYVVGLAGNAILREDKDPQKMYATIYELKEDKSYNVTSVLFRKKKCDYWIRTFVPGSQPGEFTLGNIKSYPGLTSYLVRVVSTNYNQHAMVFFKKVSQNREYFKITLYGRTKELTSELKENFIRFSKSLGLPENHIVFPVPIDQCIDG
Description: Pseudomonas aeruginosa is a Gram-negative γ-proteobacterium which can cause acute and chronic infections ranging from septicemia, urinary infections, wound colonization, and chronic lung colonization in cystic fibrosis patients ([Cornelis and Dingemans, 2013]). P. aeruginosa produces two chemically-distinct siderophores, pyoverdine (PVD) and PCH, with relatively high or low affinities for iron, respectively. […] The quite large PVD structure would also not be expected to fit within the Scn calyx, nor would the structure of PCH-chelated iron be expected to fit within the key binding pocket, due to tight steric constraints around the iron center imposed by K125 and K134. A preliminary crystal structure of a Scn/PCH complex (3U03.pdb) was deposited in the Protein Databank (PDB, ([Berman et al., 2000])) by a structural genomics consortium. […] First, using the deposited diffraction data, it was readily apparent that the PCH ligand as modeled sat in negative electron density in difference Fourier syntheses (Fig. 7A). Second, this particular crystal form of Scn usually contains three molecules in the asymmetric unit, though only two had been modeled in the deposited structure. Using the deposited diffraction data, we re-refined the structure (Table 2), successfully placing the third Scn molecule and improving refinement statistics: Rfree/Rwork values decreased from 0.303/0.269 (3U03.pdb) to 0.253/0.235 (Table 2).
Though hexadentate catecholate siderophores have much higher complexation constants, bidentate catecholamine hormones (e.g. norepinephrine, NE) are capable of chelating iron in 3:1 complexes, and can serve to promote bacterial growth, at least in vitro ([O'Donnell et al., 2006]). […] However, no co-crystal structure was or has been subsequently reported, and the observed crystal habit was distinct from the typical tetragonal forms observed for Scn (e.g., Fig. 6B, D, and F). […] In order to resolve this discrepancy, we undertook to directly determine the Fe-NE/Scn co-crystal structure. […]

[3] = biological target: T1, Scn; settings: ref Abergel et al., 2006a, cited from earlier work
[4] = biological target: T3, Scn(C87S/K125A) (Homo sapiens, UniProt P80188, C107S/K145A); test: FQ binding assay, Scn(C87S/K125A) mutant
T3 construct: made in house
T3 sequence (P80188 21-198 C107S/K145A): as the sequence (P80188 21-198 C107S) above, with K125A counted along it
Description: (§1) Growing somewhat frustrated with our inability to fully ablate ligand binding by even fairly extensive mutation, we focused on alternate mutations involving key Pocket #1: K125A, K134A, and the combination. Both lysine side-chains contribute bracketing Coulombic, cation-π, and hydrophobic interactions to the CAM group in this calyx pocket (Fig. 1A). […] The observed < 40-fold affinity reductions were surprising, given the seemingly crucial interactions contributed by these two side-chains bracketing the key pocket.
(§2) Protein biochemistry and crystallography: Mutations were made as previously described ([Abergel et al., 2008], [Goetz et al., 2002]). All clones were confirmed by DNA sequencing. Scn proteins were expressed and purified as previously described ([Abergel et al., 2008], [Bundgaard et al., 1994], [Goetz et al., 2002]). YfiY was expressed and purified as previously described. All crystals were grown using hanging drop vapor diffusion at room temperature. […] Initial Scn structure phases were calculated from the 1L6M.pdb structure and optimized by rigid-body refinement using REFMAC5 ([Murshudov et al., 1997]), or by molecular replacement using 1L6M.pdb as the search model with PHASER ([McCoy et al., 2007]). […]

[5] = biological target: T4, Scn(C87S/K134A) (Homo sapiens, UniProt P80188, C107S/K154A); test: FQ binding assay, Scn(C87S/K134A) mutant
T4 construct: made in house
T4 sequence (P80188 21-198 C107S/K154A): as the sequence (P80188 21-198 C107S) above, with K134A counted along it
Description: as §1, §2

[6] = biological target: T3, Scn(C87S/K125A); test: qualitative binding by co-crystallization (crystal color), Scn(C87S/K125A); settings: color of complex crystals
Description: as §1
(§3) Fig. 6 Effects of mutating proximal calyx-lining residues on ligand recognition. (A) Superpositions of the three Fe-ENT complexes in the crystallographic AU of the complex with the Scn(C87S/K125A) mutant are shown in a stereoview, oriented and styled as in Fig. 3C. […] (C) Superpositions of the three Fe-ENT complexes in the crystallographic AU of the complex with the Scn(C87S/K134A) mutant are shown in a stereoview. […]
(§4) Protein biochemistry and crystallography: Mutations were made as previously described ([Abergel et al., 2008], [Goetz et al., 2002]). […] Initial Scn structure phases were calculated from the 1L6M.pdb structure and optimized by rigid-body refinement using REFMAC5 ([Murshudov et al., 1997]), or by molecular replacement using 1L6M.pdb as the search model with PHASER ([McCoy et al., 2007]). […]

[7] = biological target: T4, Scn(C87S/K134A); test: qualitative binding by co-crystallization (crystal color), Scn(C87S/K134A); settings: color of complex crystals
Description: as §1, §3, §4

[8] = biological target: T5, Scn(C87S/K125A/K134A) (Homo sapiens, UniProt P80188, C107S/K145A/K154A); test: crystallographic analysis and qualitative co-crystallization binding trials, Scn(C87S/K125A/K134A); settings: crystals grown in the presence of Fe-ENT
T5 construct: made in house
T5 sequence (P80188 21-198 C107S/K145A/K154A): as the sequence (P80188 21-198 C107S) above, with K125A, K134A counted along it

[9] = biological target: Scn(C87S/W79A/R81A); parameters: method as in Abergel et al., 2008; settings: W79A/R81A mutation; ref Abergel et al., 2008; cited from earlier work
[10] = biological target: Scn(C87S/Y106F); parameters: method as in Abergel et al., 2008; settings: Y106F mutation; ref Abergel et al., 2008; cited from earlier work
[11] = biological target: Scn; parameters: method as in Li et al., 2015; settings: ref Li et al., 2015; cited from earlier work
[12] = tested on: P. aeruginosa; parameters: method as in Correnti et al., 2011; settings: in vitro; ref Correnti et al., 2011; cited from earlier work

O=C(O)c1ccc(O)c(O)c1 [3,4-DHBA]
binding to Scn ([1]; ref Correnti et al., 2012): do not bind

NC[C@H](O)c1ccc(O)c(O)c1 [NE, norepinephrine]
ligand electron density in difference Fourier syntheses ([2]; co-crystallized with 2:1:1 2,3-DHBA:NE:iron complexes): did not show difference features distinct from the previously-determined Scn:2,3-DHBA:iron complex structure
ligand electron density in difference Fourier syntheses ([2]; crystals grown with stoichiometric 3:1 NE:iron mixtures): did not show electron density features assignable to iron or ligand atoms

O=C(N[C@H]1COC(=O)[C@@H](NC(=O)c2cccc(O)c2O)COC(=O)[C@@H](NC(=O)c2cccc(O)c2O)COC1=O)c1cccc(O)c1O [apo-ENT, enterobactin/enterochelin]
Kd ([3]; apo ligand (no iron)): 3.6 nM

O=C(N[C@H]1COC(=O)[C@@H](NC(=O)c2cccc(O)c2O)COC(=O)[C@@H](NC(=O)c2cccc(O)c2O)COC1=O)c1cccc(O)c1O.[Fe] [Fe-ENT]
Kd ([4]; FQ, huScn (K125A)): 15 ± 3 nM
affinity reduction versus wild-type Scn ([4]; K125A mutation): < 40 fold
Kd ([5]; FQ, huScn (K134A)): 10 ± 2 nM
affinity reduction versus wild-type Scn ([5]; K134A mutation): < 40 fold
qualitative binding by co-crystallization [6]: binding qualitatively confirmed
qualitative binding by co-crystallization [7]: binding also qualitatively confirmed
ligand binding (crystal structure and co-crystallization trials) [8]: lack of ligand binding; also recorded: fully ablating ligand binding
Kd ([3]; wild-type Scn, Abergel et al., 2008, Goetz et al., 2002): 0.4 nM
Kd [9]: 71 nM
Kd [10]: 20 nM
KD by ITC [11]: micromolar

pyoverdine [PVD]
binding to Scn, qualitative binding assays [1]: does not appreciably bind

CN1[C@@H]([C@H]2CSC(c3ccccc3O)=N2)SC[C@H]1C(=O)O [PCH, pyochelin]
ligand binding in calyx (re-refined crystal structure) ([2]; re-refinement of 3U03.pdb diffraction data, under these crystallization conditions): does not bind
binding to Scn, qualitative binding assays [1]: does not appreciably bind

B1: Scn: glycoprotein Siderocalin, innate immune system protein with bacteriostatic activity (protein, UniProt P80188 21-198, looked up)
Neutrophil …: QDSTSDLIPAPPLSKVPLQQNFQDNQFQGKWYVVGLAGNAILREDKDPQKMYATIYELKEDKSYNVTSVLFRKKKCDYWIRTFVPGCQPGEFTLGNIKSYPGLTSYLVRVVSTNYNQHAMVFFKKVSQNREYFKITLYGRTKELTSELKENFIRFSKSLGLPENHIVFPVPIDQCIDG
growth arrest of P. aeruginosa [12]: does not arrest the growth
